Common to all, as to format: biochemical
One experiment has as its target CDK4/Cyclin D1 (Homo sapiens, UniProt P11802). Kind of experiment: CDK4/Cyclin D1 kinase assay (Nanosyn, Caliper microfluidic). To be noted: 12-point dose-response, ATP at Km (200 μM), 3 hr; Table 4. The method, boiled down:
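Caliper microfluidic mobility-shift read-out, 12-point dose-response in singlicate. 1 nM enzyme, 200 μM ATP (Km), 1 μM peptide substrate, 3 hr incubation; staurosporine as reference.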

In a further experiment the target is CDK2/Cyclin E (Homo sapiens, UniProt P24941). Kind of experiment: CDK2/Cyclin E kinase assay (Nanosyn, Caliper microfluidic). To be noted: 12-point dose-response, ATP at Km (100 μM), 3 hr. As to the method:
(§1) Selected compounds disclosed herein were tested in kinase assays by Nanosyn (Santa Clara, Calif.) to determine their inhibitory effect on selected CDKs. The assays were performed using microfluidic kinase detection technology (Caliper Assay Platform). The compounds were tested in 12-point dose-response format in singlicate at Kmfor ATP. Phosphoacceptor substrate peptide concentration used was 1 μM for all assays and Staurosporine was used as the reference compound for all assays. Specifics of each assay are as described below: CDK2/Cyclin E: Enzyme concentration: 0.15 nM; ATP concentration: 100 μM; Incubation time: 3 hr.

Another experiment deals with CDK2/Cyclin A (Homo sapiens, UniProt P24941). Briefly: CDK2/Cyclin A kinase assay (Nanosyn, Caliper microfluidic). To be noted: 12-point dose-response, ATP at Km (50 μM), 3 hr. As to the method:
as §1, with “A:” for “E:”, “0.1” for “0.15”, “50” for “100”

The next experiment concerns the target CDK6/Cyclin D3 (Homo sapiens, UniProt Q00534). Kind of experiment: CDK6/Cyclin D3 kinase assay (Nanosyn, Caliper microfluidic). To be noted: 12-point dose-response, ATP at Km (300 μM), 3 hr. As to the method: as §1, with “CDK6/Cyclin D3:” for “CDK2/Cyclin E:”, “2” for “0.15”, “300” for “100”
Another experiment concerns the target CDK3/Cyclin E (Homo sapiens, UniProt Q00526). Kind of experiment: CDK3/Cyclin E kinase assay (Nanosyn, Caliper microfluidic). The settings on record: 12-point dose-response, ATP at Km (400 μM), 3 hr. As to the method:
as §1, with “CDK3/Cyclin” for “CDK2/Cyclin”, “1” for “0.15”, “400” for “100”

The next experiment addresses CDK5/p25 (Homo sapiens, UniProt Q00535). Briefly: CDK5/p25 kinase assay (Nanosyn, Caliper microfluidic). The settings on record: 12-point dose-response, ATP at Km (20 μM), 3 hr. As to the method: as §1, with “CDK5/p25:” for “CDK2/Cyclin E:”, “0.1” for “0.15”, “20” for “100”
Another experiment deals with CDK5/p35 (Homo sapiens, UniProt Q00535). Briefly: CDK5/p35 kinase assay (Nanosyn, Caliper microfluidic). To be noted: 12-point dose-response, ATP at Km (20 μM), 3 hr. As to the method:
as §1, with “CDK5/p35:” for “CDK2/Cyclin E:”, “0.05” for “0.15”, “20” for “100”

The target in another experiment is CDK7/Cyclin H (Homo sapiens, UniProt P50613). Kind of experiment: CDK7/Cyclin H kinase assay (Nanosyn, Caliper microfluidic). The settings on record: 12-point dose-response, ATP at Km (50 μM), 17 hr. As to the method:
as §1, with “CDK7/Cyclin H:” for “CDK2/Cyclin E:”, “10” for “0.15”, “50” for “100”, “17” for “3”

In the next experiment the target is CDK1/Cyclin B1 (Homo sapiens, UniProt P06493). Briefly: CDK1/Cyclin B1 kinase assay (Nanosyn, Caliper microfluidic). The settings on record: 12-point dose-response, ATP at Km (40 μM), 3 hr. As to the method:
as §1, with “CDK1/Cyclin B1:” for “CDK2/Cyclin E:”, “0.08” for “0.15”, “40” for “100”

A further experiment deals with CDK9/Cyclin T (Homo sapiens, UniProt P50750). Kind of experiment: CDK9/Cyclin T kinase assay (Nanosyn, Caliper microfluidic). The settings on record: 12-point dose-response, ATP at Km (10 μM), 17 hr; Table 5. The procedure, abridged: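 Caliper microfluidic mobility-shift read-out, 12-point dose-response in singlicate at ATP Km with 1 μM peptide substrate; staurosporine reference.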

Molecules are shown by their SMILES. pIC50: −log10 of the molar value. Some results are limits rather than exact numbers.

Sequence of CDK1/Cyclin B1 (P06493 whole entry): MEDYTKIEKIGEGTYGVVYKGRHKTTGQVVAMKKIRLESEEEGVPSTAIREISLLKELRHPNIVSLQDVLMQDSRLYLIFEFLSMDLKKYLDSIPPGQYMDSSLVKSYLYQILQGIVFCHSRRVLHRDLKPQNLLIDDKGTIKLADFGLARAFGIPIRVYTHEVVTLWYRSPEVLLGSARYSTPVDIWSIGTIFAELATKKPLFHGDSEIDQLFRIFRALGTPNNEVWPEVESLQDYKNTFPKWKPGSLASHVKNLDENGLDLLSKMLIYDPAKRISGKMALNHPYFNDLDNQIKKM
Sequence of CDK1/Cyclin B1 (P14635 whole entry partner): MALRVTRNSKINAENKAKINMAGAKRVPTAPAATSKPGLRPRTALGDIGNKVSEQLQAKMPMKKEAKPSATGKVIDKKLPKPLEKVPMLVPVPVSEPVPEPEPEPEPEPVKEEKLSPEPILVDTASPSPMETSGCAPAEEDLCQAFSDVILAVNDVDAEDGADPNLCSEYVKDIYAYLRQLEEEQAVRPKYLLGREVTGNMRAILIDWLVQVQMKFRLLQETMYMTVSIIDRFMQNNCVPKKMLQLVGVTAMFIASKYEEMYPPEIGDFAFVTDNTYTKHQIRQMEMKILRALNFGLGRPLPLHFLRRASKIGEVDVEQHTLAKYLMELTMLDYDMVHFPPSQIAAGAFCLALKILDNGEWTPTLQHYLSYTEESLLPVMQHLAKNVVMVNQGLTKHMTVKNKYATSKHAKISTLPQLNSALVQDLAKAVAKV
Sequence of CDK6/Cyclin D3 (Q00534 whole entry): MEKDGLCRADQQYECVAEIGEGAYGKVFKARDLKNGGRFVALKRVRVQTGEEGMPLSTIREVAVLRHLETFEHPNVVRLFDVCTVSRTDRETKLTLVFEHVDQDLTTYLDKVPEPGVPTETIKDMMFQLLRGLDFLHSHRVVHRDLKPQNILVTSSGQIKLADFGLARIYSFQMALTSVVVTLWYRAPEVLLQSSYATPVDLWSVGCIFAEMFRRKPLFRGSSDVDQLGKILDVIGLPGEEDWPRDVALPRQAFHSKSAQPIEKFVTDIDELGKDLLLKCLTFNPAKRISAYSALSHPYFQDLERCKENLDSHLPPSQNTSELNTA
Sequence of CDK6/Cyclin D3 (P30281 whole entry partner): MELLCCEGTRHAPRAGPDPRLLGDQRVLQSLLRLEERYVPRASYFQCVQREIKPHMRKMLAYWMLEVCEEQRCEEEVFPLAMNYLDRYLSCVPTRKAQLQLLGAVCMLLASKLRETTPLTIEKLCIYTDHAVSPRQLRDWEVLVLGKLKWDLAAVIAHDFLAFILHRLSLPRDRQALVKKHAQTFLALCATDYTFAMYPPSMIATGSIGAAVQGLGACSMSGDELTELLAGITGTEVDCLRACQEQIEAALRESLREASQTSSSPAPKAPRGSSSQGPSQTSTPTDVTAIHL
Sequence of CDK4/Cyclin D1 (P11802 whole entry): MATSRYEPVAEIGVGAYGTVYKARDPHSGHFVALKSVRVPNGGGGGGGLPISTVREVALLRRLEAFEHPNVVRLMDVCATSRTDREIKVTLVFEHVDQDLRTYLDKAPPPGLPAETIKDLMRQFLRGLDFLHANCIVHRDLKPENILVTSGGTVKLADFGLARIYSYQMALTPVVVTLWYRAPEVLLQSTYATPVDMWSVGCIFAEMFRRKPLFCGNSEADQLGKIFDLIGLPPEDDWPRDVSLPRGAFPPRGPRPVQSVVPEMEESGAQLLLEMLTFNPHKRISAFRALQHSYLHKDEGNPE
Sequence of CDK4/Cyclin D1 (P24385 whole entry partner): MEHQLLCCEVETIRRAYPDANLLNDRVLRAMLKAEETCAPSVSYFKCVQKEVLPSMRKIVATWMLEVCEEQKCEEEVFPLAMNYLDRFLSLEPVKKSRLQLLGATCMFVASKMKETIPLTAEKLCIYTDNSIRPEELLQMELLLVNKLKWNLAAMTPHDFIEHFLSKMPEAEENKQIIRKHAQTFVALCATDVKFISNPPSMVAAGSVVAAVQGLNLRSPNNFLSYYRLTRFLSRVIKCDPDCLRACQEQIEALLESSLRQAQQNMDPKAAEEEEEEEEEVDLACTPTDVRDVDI
Sequence of CDK7/Cyclin H (P50613 whole entry): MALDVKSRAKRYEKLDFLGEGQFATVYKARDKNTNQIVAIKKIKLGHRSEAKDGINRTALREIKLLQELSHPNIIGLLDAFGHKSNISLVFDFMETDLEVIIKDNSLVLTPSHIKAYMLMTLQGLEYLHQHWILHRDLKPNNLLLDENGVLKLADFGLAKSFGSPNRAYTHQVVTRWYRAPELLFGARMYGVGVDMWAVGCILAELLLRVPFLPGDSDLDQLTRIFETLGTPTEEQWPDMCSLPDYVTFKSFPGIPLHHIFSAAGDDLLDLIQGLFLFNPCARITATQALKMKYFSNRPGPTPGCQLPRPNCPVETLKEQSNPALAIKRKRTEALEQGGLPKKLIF
Sequence of CDK7/Cyclin H (P51946 whole entry partner): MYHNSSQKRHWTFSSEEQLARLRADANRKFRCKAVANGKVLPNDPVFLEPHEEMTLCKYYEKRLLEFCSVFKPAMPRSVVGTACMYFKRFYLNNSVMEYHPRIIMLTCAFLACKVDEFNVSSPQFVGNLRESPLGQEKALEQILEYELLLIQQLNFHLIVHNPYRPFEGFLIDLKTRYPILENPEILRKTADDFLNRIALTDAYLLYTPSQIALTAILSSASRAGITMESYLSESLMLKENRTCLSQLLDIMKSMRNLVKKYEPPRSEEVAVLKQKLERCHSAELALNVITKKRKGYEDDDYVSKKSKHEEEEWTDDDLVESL
Sequence of CDK7/Cyclin H (P51948 whole entry partner): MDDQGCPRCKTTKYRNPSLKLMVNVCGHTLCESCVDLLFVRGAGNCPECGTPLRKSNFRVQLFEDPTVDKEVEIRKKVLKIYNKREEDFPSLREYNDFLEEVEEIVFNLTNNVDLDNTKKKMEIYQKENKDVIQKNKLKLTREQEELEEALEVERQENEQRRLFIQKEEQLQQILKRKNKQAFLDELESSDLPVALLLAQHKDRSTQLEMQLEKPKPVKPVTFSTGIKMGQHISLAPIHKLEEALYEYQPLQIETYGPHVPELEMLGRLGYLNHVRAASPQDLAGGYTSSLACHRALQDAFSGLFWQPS
Sequence of CDK5/p25 (Q00535 whole entry): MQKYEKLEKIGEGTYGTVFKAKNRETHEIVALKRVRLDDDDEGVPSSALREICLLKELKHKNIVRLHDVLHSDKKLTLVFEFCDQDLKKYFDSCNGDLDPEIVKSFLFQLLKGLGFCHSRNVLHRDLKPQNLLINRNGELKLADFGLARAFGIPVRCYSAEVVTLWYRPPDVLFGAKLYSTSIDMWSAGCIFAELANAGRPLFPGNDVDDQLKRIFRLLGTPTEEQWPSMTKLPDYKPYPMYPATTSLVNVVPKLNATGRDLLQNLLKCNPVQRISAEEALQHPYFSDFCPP
Sequence of CDK5/p25 (Q15078 99-307 partner limits assumed): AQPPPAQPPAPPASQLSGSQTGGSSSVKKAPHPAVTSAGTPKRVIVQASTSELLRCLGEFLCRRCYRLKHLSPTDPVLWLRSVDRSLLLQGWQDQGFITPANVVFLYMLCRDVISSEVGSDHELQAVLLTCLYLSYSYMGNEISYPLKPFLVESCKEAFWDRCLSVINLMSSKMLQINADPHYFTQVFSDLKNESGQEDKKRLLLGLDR
Sequence of CDK5/p35 (Q00535 whole entry): as the sequence (Q00535 whole entry) above
Sequence of CDK5/p35 (Q15078 whole entry partner): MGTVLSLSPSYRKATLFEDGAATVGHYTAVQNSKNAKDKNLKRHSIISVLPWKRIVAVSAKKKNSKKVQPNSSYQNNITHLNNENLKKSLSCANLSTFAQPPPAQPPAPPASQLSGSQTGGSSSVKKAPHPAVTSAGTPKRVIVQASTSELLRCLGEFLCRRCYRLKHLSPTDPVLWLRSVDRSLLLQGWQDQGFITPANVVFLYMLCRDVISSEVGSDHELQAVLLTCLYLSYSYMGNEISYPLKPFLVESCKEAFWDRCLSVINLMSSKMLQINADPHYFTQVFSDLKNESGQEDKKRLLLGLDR

Broadly, the pIC50 is −log10 of the IC50, conventionally taken in molar units. Read a high pIC50 as a low IC50. As for `C[C@H]1NCCC[C@H]1C(=O)Nc1ncc2cc3n(c2n1)C1(CCCCC1)CNC3=O` [Compound 30, (2R,3R)-2-methyl-N-(6′-oxo-7′,8′-dihydro-6′H-spiro[cyclohexane-1,9′-pyrazino[1′,2′:1,5]pyrrolo[2,3-d]pyrimidin]-2′-yl)piperidine-3-carboxamide], the pIC50 against CDK4/Cyclin D1 was 5.82; at CDK2/Cyclin E, 5.27; on CDK2/Cyclin A, 5.72; against CDK6/Cyclin D3 it was 4.82; against CDK3/Cyclin E, 5.16; against CDK5/p25, 5.08. In addition, the pIC50 against CDK5/p35 was 5.10; against CDK7/Cyclin H it was 5.35; against CDK1/Cyclin B1, 5.42; against CDK9/Cyclin T, 7.35.
Take `O=C1NCC2(CCCCC2)n2c1cc1cnc(NC(=O)[C@@H]3CCNC3)nc12` [Compound 32, (R)-N-(6′-oxo-7′,8′-dihydro-6′H-spiro[cyclohexane-1,9′-pyrazino[1′,2′:1,5]pyrrolo[2,3-d]pyrimidin]-2′-yl)pyrrolidine-3-carboxamide]: the pIC50 against CDK4/Cyclin D1 is 5.64; against CDK2/Cyclin E it was 4.92; against CDK2/Cyclin A, 5.51; on CDK6/Cyclin D3 it was 4.85; at CDK3/Cyclin E it was 5.07; against CDK5/p25 it was 4.72. The pIC50 at CDK5/p35 was 4.80; against CDK7/Cyclin H, 4.92; on CDK1/Cyclin B1, 5.25; on CDK9/Cyclin T, 7.92.
On to `O=C1NCC2(CCCCC2)n2c1cc1cnc(NC(=O)[C@H]3CCNC3)nc12` [Compound 33, (S)-N-(6′-oxo-7′,8′-dihydro-6′H-spiro[cyclohexane-1,9′-pyrazino[1′,2′:1,5]pyrrolo[2,3-d]pyrimidin]-2′-yl)pyrrolidine-3-carboxamide], for which the pIC50 at CDK4/Cyclin D1 is 5.48; at CDK2/Cyclin E it was 4.59; at CDK2/Cyclin A it was 5.21; on CDK6/Cyclin D3 it was 4.92; against CDK3/Cyclin E it was 4.64; at CDK5/p25, 4.47. The pIC50 is 4.47 on CDK5/p35, 4.70 against CDK7/Cyclin H, 4.80 against CDK1/Cyclin B1 and 7.46 against CDK9/Cyclin T.
For the compound `O=C(C[C@@H]1CCCN1)Nc1ncc2cc3n(c2n1)C1(CCCCC1)CNC3=O` [Compound 34, (S)-N-(6′-oxo-7′,8′-dihydro-6′H-spiro[cyclohexane-1,9′-pyrazino[1′,2′:1,5]pyrrolo[2,3-d]pyrimidin]-2′-yl)-2-(pyrrolidin-2-yl)acetamide], the pIC50 on CDK4/Cyclin D1 is 5.54; against CDK2/Cyclin E, 4.57; against CDK2/Cyclin A, 4.92; against CDK6/Cyclin D3, 5.08; at CDK3/Cyclin E, 4.48; at CDK5/p25, 4.28. The pIC50 is 4.54 at CDK5/p35, 4.77 against CDK7/Cyclin H, 4.74 at CDK1/Cyclin B1 and 6.72 against CDK9/Cyclin T.
Consider `O=C1NCC2(CCCCC2)n2c1cc1cnc(NC(=O)[C@H]3CNCCO3)nc12` [Compound 35, (R)-N-(6′-oxo-7′,8′-dihydro-6′H-spiro[cyclohexane-1,9′-pyrazino[1′,2′:1,5]pyrrolo[2,3-d]pyrimidin]-2′-yl)morpholine-2-carboxamide], for which the pIC50 is 4.57 on CDK4/Cyclin D1; 4.59 against CDK2/Cyclin E; 5.00 against CDK2/Cyclin A; less than 4.00 on CDK6/Cyclin D3; 4.27 on CDK3/Cyclin E; 4.37 on CDK5/p25. For the same compound, the pIC50 on CDK5/p35 was 4.40; on CDK7/Cyclin H, 4.21; against CDK1/Cyclin B1, 4.51; at CDK9/Cyclin T, 7.06.
With `O=C1NCC2(CCCCC2)n2c1cc1cnc(NC(=O)[C@H]3CNCCN3)nc12` [Compound 36, (R)-N-(6′-oxo-7′,8′-dihydro-6′H-spiro[cyclohexane-1,9′-pyrazino[1′,2′:1,5]pyrrolo[2,3-d]pyrimidin]-2′-yl)piperazine-2-carboxamide], the pIC50 against CDK4/Cyclin D1 is 5.03; at CDK2/Cyclin E it was less than 4.00; against CDK2/Cyclin A, 4.06; against CDK6/Cyclin D3, 4.09; at CDK3/Cyclin E, less than 4.00; at CDK5/p25, less than 4.00. Also, the pIC50 was less than 4.00 at CDK5/p35, less than 4.00 at CDK7/Cyclin H, less than 4.00 at CDK1/Cyclin B1 and 6.62 against CDK9/Cyclin T.
For the compound `O=C(C[C@H]1CCCN1)Nc1ncc2cc3n(c2n1)C1(CCCCC1)CNC3=O` [Compound 37, (R)-N-(6′-oxo-7′,8′-dihydro-6′H-spiro[cyclohexane-1,9′-pyrazino[1′,2′:1,5]pyrrolo[2,3-d]pyrimidin]-2′-yl)-2-(pyrrolidin-2-yl)acetamide], the pIC50 was 5.20 against CDK4/Cyclin D1; 4.54 against CDK2/Cyclin E; 4.80 against CDK2/Cyclin A; 4.85 against CDK6/Cyclin D3; 4.42 at CDK3/Cyclin E; 4.51 at CDK5/p25. Also, the pIC50 is 4.55 at CDK5/p35, 4.77 against CDK7/Cyclin H, 4.57 on CDK1/Cyclin B1 and 6.92 against CDK9/Cyclin T.
On to `CN1CCN([C@H]2CC[C@@H](Nc3ncc4cc5n(c4n3)C3(CCCCC3)CNC5=S)CC2)CC1` [Compound 39, 2′-(((1s,4s)-4-(4-methylpiperazin-1-yl)cyclohexyl)amino)-7′,8′-dihydro-6′H-spiro[cyclohexane-1,9′-pyrazino[1′,2′:1,5]pyrrolo[2,3-d]pyrimidine]-6′-thione], for which the pIC50 against CDK4/Cyclin D1 is 8.02; at CDK2/Cyclin E it was 6.52; against CDK2/Cyclin A, 6.85; on CDK6/Cyclin D3, 7.32; against CDK3/Cyclin E, 6.38; against CDK5/p25 it was 5.80. The pIC50 was 5.82 against CDK5/p35, 6.30 at CDK7/Cyclin H, 5.92 against CDK1/Cyclin B1 and 7.89 against CDK9/Cyclin T.

These data come from patent publication US20200331925A1, “HETEROCYCLIC COMPOUNDS FOR THE TREATMENT OF ABNORMAL CELLULAR PROLIFERATION” (G1 Therapeutics, Inc., priority 2018, published 2020).
